Measured values as given in patent US7649002B2, “(3,5-dimethylpiperidin-1yl)(4-phenylpyrrolidin-3-yl)methanone derivatives as MCR4 agonists” (Pfizer Inc, priority 2004, dated 2010).

What was measured:
[1] = system: men with psychogenic and organic ED; conditions: cited from earlier work
human MCR4 receptor [2] = target: T1, human MCR4 receptor (Homo sapiens, UniProt P32245); test: MCR4 standard functional assay (Protocol C): cAMP AlphaScreen in HEK cells; assay type: cell-based; conditions: Table 5
T1 construct: expressed in transfected cells
Description: (§1) Stimulation of adenylate cyclase following receptor activation is a widely used measure of functional activity for a number of receptor systems. The functional assay to measure cyclic AMP (cAMP) utilises human embryonic kidney (HEK) cells that stably express the human melanocortin MCR1, MCR3 or MCR4 receptor. Activation of MCR1, MCR3 or MCR4 receptors stimulates adenylate cyclase, generating cAMP, which is measured using AlphaScreen™ (PerkinElmer assay kits.
(§2) The AlphaScreen™ cAMP assay kit consists of ‘donor beads’, ‘acceptor beads’, and biotinylated cAMP which links the different beads together. Excitation of this linked complex at […] in the Fusion™-α microplate analyser results in light emission between […].
(§3) (i) MCR1. MCR3 and MCR4 Standard Functional Assay Methodology [Assay Protocol A, B AND C Respectively]
(§4) Determination of activity against the human MCR1, MCR3 and MCR4 receptor subtypes was carried out for compounds according to the present invention using three immortalised human embryonic kidney (HEK) cell lines that had been biologically engineered to express the human melanocortin MCR1, MCR3 or MCR4 receptor subtypes. These cell lines were engineered using protocols akin to those outlined by Gouarderes et al (Gouarderes, C., (2002) Neuroscience, 115(2); 349-361).
(§5) Such-compound-induced activation of these MCR1, MCR3 or MCR4 receptors lead to the stimulation of the cellular enzyme adenylate cyclase, which in turn lead to the cellular generation, and intra-cellular accumulation, of cyclic adenosine monophosphate (cAMP). […] Intracellular levels of cAMP were quantified using the commercially available AlphaScreen™ assay kits from PerkinElmer. A detailed assay protocol and an explanation of the concept underlying this kit is available through the PerkinElmer website (www.perkinelmer.com). The protocol listed below provides a summary this information.
(§6) The quantity of intracellular cAMP produced by compound-induced activation of the MCR1, MCR3 and MCR4 receptors in these three cell lines was measured using a Fusion™-α microplate analyser set to stimulate at a wavelength of 680 nm and to measure the energy emitted at wave lengths between […]. Compound-induced increases in MCR1, MCR3 or MCR4 receptor activation were subsequently quantified as a decrease in the quantity of light emitted at wavelengths between […]. Data analysis was subsequently performed using a curve-fitting program and the apparent potency of the test compound (expressed as an EC50 and defined as the effective compound concentration that elicited 50% of the maximum compound-induced response) extrapolated from the fitted curve.
Stimulation buffer (as per AlphaScreen™ protocol): HBSS supplemented with 0.5 mM IBMX, 5 mM HEPES, 0.1% (w/v) BSA and 10 mM MgCl2. […]

human MCR3 receptor = target: T2, human MCR3 receptor (Homo sapiens, UniProt P41968); test: MCR3 standard functional assay (Protocol B): cAMP AlphaScreen in HEK cells; assay type: cell-based; conditions: Table 5
T2 construct: expressed in transfected cells
Description: as §1, §2, §3, §4, §5, §6
Stimulation buffer (as per AlphaScreen™ protocol): HBSS supplemented with 0.5 mM IBMX, 5 mM HEPES, 0.1% (w/v) BSA and 10 mM MgCl2.
Lysis buffer (as per AlphaScreen™ protocol): 5 mM HEPES solution supplemented with 0.1% (w/v) BSA and 0.3% (v/v) Tween-20.
Detection mix (as per AlphaScreen™ protocol): Lysis buffer supplemented with the biotinylated cAMP (10 nM) and Donor beads (10 μg/ml) as supplied in the AlphaScreenT cAMP assay kit.
For the MCR1, MCR3 and MCR4 standard functional assay methodologies compounds were initially dissolved in DMSO to give a compound concentration of 4 mM and then further diluted for the assay in stimulation buffer to give actual concentrations 2-fold greater than that desired as the final assay concentration.
The three HEK cell lines, as detailed hereinbefore, expressing the human MCR1, MCR3 or MCR4 receptor subtypes were grown in T225 vent cap flasks containing 50 ml of growth medium (DMEM supplemented with 10% (v/v) FCS, 2 mM L-Glutamine, 25 mM HEPES and 1.0 mg/ml Geneticin) and maintained in a cell incubator at a temperature of 37° C. and in an environment containing 5% CO2. Cells were harvested when they reached 80-90% confluency by first removing the existing growth medium and then washing with PBS that had been pre-warmed to a temperature of 37° C. […]

human MCR5 receptor = target: T3, human MCR5 receptor (Homo sapiens, UniProt P33032); test: MCR5 standard functional assay (Protocol D): CHO-K1-MC5R-CRE-β-lactamase reporter; assay type: cell-based; conditions: Table 6; for Selectivity MCR5/MCR4: MCR4 by Protocol E; for EC50: Protocol D
T3 construct: expressed in transfected cells
Description: These cell lines were engineered using protocols akin to those outlined by Zaccolo et al (Zaccolo, M., (2000) Nature, 2(1); 25-29). Compound-induced activation of the MCR5 or MCR4 receptors in these two cell lines stimulated the production, and intracellular accumulation, of the enzyme β-lactamase. The quantity of β-lactamase enzyme produced was directly proportional to the degree to which the test compound activated the MCR5 or MCR4 receptors present on these cells and was quantified using the P-lactamase gene reporter analysis kit that is commercially available from Invitrogen Life Technologies. An in-depth description of this technology and assay protocols are available from the Invitrogen web site (www.invitrogen.com). The protocol listed below provides a summary of that assay methodology. The quantity of β-lactamase enzyme produced by compound-induced activation of the MCR5 or MCR4 receptors expressed in these cell lines was quantified using a LjI Biosystems Analyst™ HT 96.384 plate reader set to excite at a wave length of 405 nm, and measure the energy emitted at wave lengths of 450 nm and 530 nm. Cellular responses were quantified by dividing the measured energy emitted at a wavelength of 450 nm by the measured energy emitted at a wavelength of 530 nm. […] CCF4-AM was dissolved in 100% DMSO to give a final solution concentration of 1 mM. This solution was termed Solution A. Probenecid was dissolved in 200 mM NaOH to give a final solution concentration of 200 mM. This solution was termed Solution D. Composition of the β-lactamase assay dye solution: for 1072 μL of assay dye solution combine: 12 μL of Solution A, 60 μL of Solution B, 925 μL of Solution C and 75 μL of Solution D. […] Cells were grown in T225 vent cap flasks containing 50 ml of growth medium and maintained in a cell incubator at a temperature of 37° C. and in an environment containing 5% CO2. The composition of the growth medium for the CHO-K1-MC5R-CRE-β-lactamase was 90% v/v DMEM supplemented with; Glutamax-1, 25 mM HEPES, 10% v/v foetal calf serum (FCS), 1 mM sodium pyruvate, 0.1 mM non essential amino acids and 800 μg/ml genetic in. For the CHO-K1-MC4R-CRE-β-lactamase this growth media was further supplemented with […] Zeocin. Cells were harvested when they reached 80-90% confluency by first removing the existing growth medium and then washing with PBS that had been pre-warmed to a temperature of 37° C. This PBS was then removed and 5 ml of cell dissociation fluid added to the flask. These cells were incubated for 5 minutes in a cell incubator set at a temperature of 37° C. and in an environment containing 5% CO2 to detach the cells. When cells were detached, pre-warmed growth media was added, the cells re-suspended and mixed gently to achieve a single cell suspension by pipetting. This cell suspension was then used for experimentation, or transferred into a new T225 flask to perpetuate the cell culture. On the first day of the assay cells were harvested as described above. […] For each assay the cell plates were then retuned to a cell incubator maintained at a temperature of 37° C. and in an environment containing 5% CO2 overnight before performing the assay on the second assay day. […] For the MCR4 improved functional assay methodology the solution of cyclohexamide was not added. Subsequently, 10 μL of the test compound solution was transferred to the assay plate. […] After this incubation period the plate was removed from the incubator, 10 μL of the […] assay dye solution was added to each well and then the plate returned to the cell incubator.

human MCR4 receptor [3] = target: T1, human MCR4 receptor; test: MCR4 improved functional assay (Protocol E): CHO-K1-MC4R-CRE-β-lactamase reporter; assay type: cell-based
Description: (ii) MCR5 Standard Functional Assay Methodology and MCR4 Improved Functional Assay Methodology [Assay Protocol D and E Respectively] […] These cell lines were engineered using protocols akin to those outlined by Zaccolo et al (Zaccolo, M., (2000) Nature, 2(1); 25-29). Compound-induced activation of the MCR5 or MCR4 receptors in these two cell lines stimulated the production, and intracellular accumulation, of the enzyme β-lactamase. The quantity of β-lactamase enzyme produced was directly proportional to the degree to which the test compound activated the MCR5 or MCR4 receptors present on these cells and was quantified using the P-lactamase gene reporter analysis kit that is commercially available from Invitrogen Life Technologies. An in-depth description of this technology and assay protocols are available from the Invitrogen web site (www.invitrogen.com). The protocol listed below provides a summary of that assay methodology. The quantity of β-lactamase enzyme produced by compound-induced activation of the MCR5 or MCR4 receptors expressed in these cell lines was quantified using a LjI Biosystems Analyst™ HT 96.384 plate reader set to excite at a wave length of 405 nm, and measure the energy emitted at wave lengths of 450 nm and 530 nm. Cellular responses were quantified by dividing the measured energy emitted at a wavelength of 450 nm by the measured energy emitted at a wavelength of 530 nm. […] CCF4-AM was dissolved in 100% DMSO to give a final solution concentration of 1 mM. This solution was termed Solution A. Probenecid was dissolved in 200 mM NaOH to give a final solution concentration of 200 mM. This solution was termed Solution D. Composition of the β-lactamase assay dye solution: for 1072 μL of assay dye solution combine: 12 μL of Solution A, 60 μL of Solution B, 925 μL of Solution C and 75 μL of Solution D. […] Cells were grown in T225 vent cap flasks containing 50 ml of growth medium and maintained in a cell incubator at a temperature of 37° C. and in an environment containing 5% CO2. The composition of the growth medium for the CHO-K1-MC5R-CRE-β-lactamase was 90% v/v DMEM supplemented with; Glutamax-1, 25 mM HEPES, 10% v/v foetal calf serum (FCS), 1 mM sodium pyruvate, 0.1 mM non essential amino acids and 800 μg/ml genetic in. For the CHO-K1-MC4R-CRE-β-lactamase this growth media was further supplemented with […] Zeocin. Cells were harvested when they reached 80-90% confluency by first removing the existing growth medium and then washing with PBS that had been pre-warmed to a temperature of 37° C. This PBS was then removed and 5 ml of cell dissociation fluid added to the flask. These cells were incubated for 5 minutes in a cell incubator set at a temperature of 37° C. and in an environment containing 5% CO2 to detach the cells. When cells were detached, pre-warmed growth media was added, the cells re-suspended and mixed gently to achieve a single cell suspension by pipetting. This cell suspension was then used for experimentation, or transferred into a new T225 flask to perpetuate the cell culture. […] For each assay the cell plates were then retuned to a cell incubator maintained at a temperature of 37° C. and in an environment containing 5% CO2 overnight before performing the assay on the second assay day. […] For the MCR4 improved functional assay methodology the solution of cyclohexamide was not added. Subsequently, 10 μL of the test compound solution was transferred to the assay plate. The assay plate was then transferred to a cell incubator, set at 37° C. and in an environment containing 5% CO2, and left for 4 hours for the MCR4 improved assay methodology, or 5 hours for the MCR5 standard assay methodology. After this incubation period the plate was removed from the incubator, 10 μL of the […] assay dye solution was added to each well and then the plate returned to the cell incubator.

T3 sequence (P33032 whole entry): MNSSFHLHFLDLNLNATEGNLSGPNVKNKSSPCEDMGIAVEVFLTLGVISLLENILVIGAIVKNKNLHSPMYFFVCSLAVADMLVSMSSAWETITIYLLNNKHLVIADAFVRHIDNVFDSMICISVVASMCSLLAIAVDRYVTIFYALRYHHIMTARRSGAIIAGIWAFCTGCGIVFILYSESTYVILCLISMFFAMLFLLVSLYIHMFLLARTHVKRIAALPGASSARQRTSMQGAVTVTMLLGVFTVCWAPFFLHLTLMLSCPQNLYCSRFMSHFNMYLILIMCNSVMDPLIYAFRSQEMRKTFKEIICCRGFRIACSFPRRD
T1 sequence (P32245 whole entry): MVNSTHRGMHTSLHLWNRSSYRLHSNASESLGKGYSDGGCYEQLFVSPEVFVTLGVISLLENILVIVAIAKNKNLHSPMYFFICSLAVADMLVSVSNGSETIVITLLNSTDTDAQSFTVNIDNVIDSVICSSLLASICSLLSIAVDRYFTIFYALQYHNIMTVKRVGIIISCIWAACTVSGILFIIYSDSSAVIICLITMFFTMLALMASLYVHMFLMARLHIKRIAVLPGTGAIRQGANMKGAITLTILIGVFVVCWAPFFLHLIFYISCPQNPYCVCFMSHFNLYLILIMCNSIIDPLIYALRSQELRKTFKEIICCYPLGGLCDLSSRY
T2 sequence (P41968 whole entry): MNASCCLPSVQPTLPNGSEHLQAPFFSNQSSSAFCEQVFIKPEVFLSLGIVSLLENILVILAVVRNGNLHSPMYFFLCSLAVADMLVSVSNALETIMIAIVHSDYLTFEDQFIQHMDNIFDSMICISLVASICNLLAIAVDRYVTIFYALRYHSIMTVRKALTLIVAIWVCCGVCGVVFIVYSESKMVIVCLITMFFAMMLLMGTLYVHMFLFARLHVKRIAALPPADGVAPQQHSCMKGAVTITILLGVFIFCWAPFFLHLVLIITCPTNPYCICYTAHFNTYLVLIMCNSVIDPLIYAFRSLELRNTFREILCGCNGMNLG

Melanotan II
doses after which increased sexual desire was reported ([1]; 13/19 doses, vs placebo P<0.01): 68% | subjects with severe nausea ([1]; dose of 0.025 mg/kg): 12.9% | men with penile erection ([1]; in the absence of sexual stimulation, 20 men with psychogenic and organic ED): 17 of 20 | mean duration of Rigiscan tip rigidity>80% ([1]; men with ED, monitored 6 hours): 41 min

CCN1C[C@@H](C(=O)N2C[C@@H](C)[C@](O)(C3CCCCC3)[C@@H](C)C2)[C@H](c2ccc(F)cc2F)C1 (relative stereo) [Example 2, (3R,4R,5S)-4-Cyclohexyl-1-{[(3S*,4R*)4-(2,4-difluorophenyl)-1-ethylpyrrolidin-3-yl]carbonyl}-3,5-dimethylpiperidin-4-ol]
EC50 (human MCR4 receptor [2]): 68 nM | Selectivity MCR3/MCR4 (human MCR3 receptor; MCR4 by Protocol C): 123 | EC50 (human MCR3 receptor; Protocol B): 8380 nM

C[C@@H]1CN(C(=O)[C@@H]2CN(C(C)(C)C)C[C@H]2c2ccc(F)cc2F)C[C@H](C)[C@@]1(O)c1ccccn1.Cl [Example 22, (3R,4R,5S)-1-[(3S,4R)-1-tert-Butyl-4-(2,4-difluorophenyl)pyrrolidin-3-yl]carbonyl-3,5-dimethyl-4-pyridin-2-ylpiperidin-4-ol hydrochloride]
Selectivity MCR5/MCR4 (human MCR5 receptor): 772 | EC50 (human MCR5 receptor): 17800 nM | EC50 (human MCR4 receptor [3]; Protocols C or E, read-out: functional potency at the MC4 receptor (EC50)): < 50 nM | EC50 (human MCR4 receptor [3]; Table 6, read-out: MCR4 EC50): 23 nM

Cc1ccc([C@@]2(O)[C@H](C)CN(C(=O)[C@@H]3CN(C(C)(C)C)C[C@H]3c3ccc(F)cc3F)C[C@@H]2C)cc1 [Example 4, (3R,4R,5S)-1-{[(3S,4R)-1-tert-Butyl-4-(24-difluorophenyl)pyrrolidin-3-yl]carbonyl}-3,5-dimethyl-4-(4-methylphenyl)piperidin-4-ol]
EC50 (human MCR4 receptor [2]): 45 nM

C[C@@H]1CN(C(=O)[C@@H]2CN(C(C)(C)C)C[C@H]2c2ccc(F)cc2F)C[C@H](C)[C@@]1(O)c1ccc(F)cc1F.Cl [Example 15, (3R,4R,5S)-1-{[(3S,4R)-1-tert-butyl-4-(2,4-difluorophenyl)pyrrolidin-3-yl]carbonyl}-4-(2,4-difluorophenyl)-3,5-dimethylpiperidin-4-ol hydrochloride]
Selectivity MCR5/MCR4 (human MCR5 receptor): 556 | EC50 (human MCR5 receptor): 3500 nM | EC50 (human MCR4 receptor [3]; MCR4 EC50 (nM), Table 6): 6.3 nM | EC50 (human MCR4 receptor [3]; functional potency at the MC4 receptor (EC50), Protocols C or E): < 50 nM
